Where two headings read alike, the source gives them in different places.
Experiments:
[1] = system: A375 Human Melanoma Xenografts; conditions: A375
Procedure: (§1) Other antitumor compounds were similarly formulated. […] The dosing volume was 0.3 ml per 20 g mouse.
Female NCr-nude mice (implanted subcutaneously with 1 mm^3 A375 melanoma in the flank) were sorted into treatment groups of six mice each, except for the Taxotere group having seven mice each. […] Dosing was initiated on Day 1. The antitumor compounds were given i.v. at an estimated maximum tolerated dose (MTD) appropriate for each agent on a qd x 1 schedule (single administration of compound). […] Taxotere was given i.v. on a qd x 1 schedule at a dose of 70 mg/kg. The vehicle was administered i.v. to control mice in Group 1 on the qd x 1 schedule. Treatment groups are detailed in Table 9. The study was terminated on Day 60.
(§2) The results are summarized in Table 10 and include mean days of survival (MDS), number of toxic deaths, number of survivors, number of complete or partial responses, and number with stable disease. The mean days of survival is the number of days after which a tumor reached a size of 2.0 g and the animal was euthanized. A complete response is obtained if the tumor is not palpable at the end of the study. A partial response is obtained if the tumor shrinks to a size smaller than its size on Day 1 of the study. […]

[2] = system: DU 145 Human Prostate Carcinoma Xenografts; conditions: DU145
Procedure: as §1
Male NCr-nude mice (implanted subcutaneously with 1 mm^3 DU145 prostate carcinoma fragments in the flank) were sorted into treatment groups of five mice each. […] Dosing was initiated on Day 1. The antitumor compounds were given i.v. at an estimated maximum tolerated dose (MTD) appropriate for each agent on a qd x 1 schedule (single administration of compound). […] The vehicle was administered i.v. to control mice in Group 1 on the qd x 1 schedule. The study was terminated on Day 91. Treatment groups are detailed in Table 5.
The mean days of survival is the number of days after which a neoplasm reached a size of 1.5 g and the animal was euthanized. A complete response is obtained if the tumor is not palpable at the end of the study. A partial response is obtained if the tumor shrinks to a size smaller than its size on Day 1 of the study. […]

[3] = system: A375 Human Melanoma Xenograft; conditions: 10 mice/group, study end Day 60
Procedure: Female nu/nu mice (6-8 weeks of age; implanted subcutaneously with 1 mm^3 A375 melanoma fragments in the flank) were sorted into one control and four treatment groups of ten mice each (group mean tumor size of 96-98 mg). […] The study was terminated on Day 60.
The mean days of survival is the number of days after which a neoplasm reached a size of 2.0 g and the animal was euthanized. A complete response is obtained if the tumor is not palpable at the end of the study. A partial response is obtained if the tumor shrinks to a size smaller than its size on Day 1 of the study.

[4] = system: VM46 Human Colon Carcinoma Xenografts; conditions: 72.6 mg/kg i.v. qd x 1, 6 mice/group, study end Day 64
Procedure: (§3) Other antitumor compounds were similarly formulated. […] The dosing volume was 0.3 mL per 20 g mouse.
(§4) Female NCr-nude mice (6-8 weeks of age, implanted subcutaneously with 1 mm^3 VM46 colon carcinoma fragments in the flank) were sorted into treatment groups of six mice each. […] Dosing was initiated on Day 1. The antitumor compounds were given i.v. at an estimated maximum tolerated dose (MTD) appropriate for each agent on a qd x 1 schedule (single administration of compound). […] Taxotere was given i.v. at a dose of 70 mg/kg on a qd x 1 schedule. The vehicle was given i.v. to control mice in Group 1 in each test on Day 1 (qd x 1) schedule. Treatment groups are detailed in Table 13. The VM46 study ended on Day 64.
as §2, with “in table 14” for “in Table 10”, “a neoplasm” for “a tumor”, “of 1.5” for “of 2.0”

[5] = system: Panc-1 Human Pancreatic Carcinoma Xenografts; conditions: 6 mice/group
Procedure: as §3
as §4, with “Panc-1 pancreatic” for “VM46 colon”, “12.” for “13.”, “The” for “The VM46”, “was terminated” for “ended”, “63.” for “64.”
The mean days of survival is the number of days after which a neoplasm reached a size of 1.5 g and the animal was euthanized. A complete response is obtained if the tumor is not palpable at the end of the study. A partial response is obtained if the tumor shrinks to a size smaller than its size on Day 1 of the study.

[6] = system: HCT116 Human Colon Carcinoma Xenograft; conditions: HCT116, i.v. Day 1 (Taxol 36 mg/kg split dose, 1393 73 mg/kg single dose)
[7] = i.v. qd x 1 (mg/kg: Taxol 24, 1351 107.6, 1393 72.6, 1401 107.6, 1418 107.6, 1424 195.1, Taxotere 70), Day 60
[8] = i.v. qd x 1 (mg/kg: Taxol 24, 1351 107.6, 1393 72.6, 1401 107.6, 1418 107.6, 1424 195.1), 5 mice/group, Day 91
[9] = oral 36.5 mg/kg on Days 1, 15, 29 and 43 (q14dx3, cumulative 109.5 mg/kg)
[10] = oral 73 mg/kg on Day 1, then 21.9 mg/kg on Days 11, 21, 31 and 41 (cumulative 160.6 mg/kg)
[11] = i.v. qd x 1 at estimated MTD, study end Day 63
[12] = Panc-1, i.v. qd x 1 (mg/kg: 1393 72.6, 1418 107.6), Day 63

Structure (SMILES): CCC(=O)OC1CC2OCC2(OC(C)=O)C2C(OC(=O)c3ccccc3)C3(O)CC(OC(=O)C(O)C(NC(=O)OC(C)(C)C)c4ccco4)C(C)=C(C(O)C(=O)C12C)C3(C)C (stereo not shown) [Compound 1393, 3'-Desphenyl-3'-(2-furyl)-7-propionyl taxotere]
- Survivors [1, 7]: 0
- survival extension compared to Group 1 controls ([1]; i.v. qd x 1 (mg/kg: Taxol 24, 1393 72.6, 1418 107.6, Taxotere 70)): 250%
- Survivors [2, 8]: 4
- Survivors ([3]; 104 mg/kg single oral bolus): 9
- Survivors [3, 9]: 4
- Survivors [3, 10]: 9
- Survivors [4]: 1
- Survivors [5, 11]: 6
- Survivors ([6]; 5 mice/group, Day 60): 5

Structure (SMILES): CCC(=O)O[C@H]1C[C@H]2OC[C@@]2(OC(C)=O)[C@H]2[C@H](OC(=O)c3ccccc3)[C@]3(O)C[C@H](OC(=O)[C@H](O)[C@@H](NC(=O)OC(C)(C)C)c4ccco4)C(C)=C([C@@H](O)C(=O)[C@]12C)C3(C)C [Compound 1393, 3'-Desphenyl-3'-(2-furyl)-7-propionyl taxotere]
- Complete Response [1, 7]: 0
- Partial Response [1, 7]: 0
- Stable Disease [1, 7]: 0
- Toxic Deaths [1, 7]: 0
- Mean Score ([1]; i.v. qd x 1 (mg/kg: Taxol 24, 1351 107.6, 1393 72.6, 1401 107.6, 1418 107.6, 1424 195.1, Taxotere 70), tumor score 1 to 10, group mean): 3±0
- complete response rate ([2]; 1393 72.6 mg/kg i.v. qd x 1): 60%
- Complete Response [2, 8]: 3
- Partial Response [2, 8]: 1
- Stable Disease [2, 8]: 0
- Mean Score ([2]; i.v. qd x 1 (mg/kg: Taxol 24, 1351 107.6, 1393 72.6, 1401 107.6, 1418 107.6, 1424 195.1), tumor score 1 to 10, group mean): 8 ± 1.5
- Complete Response ([3]; 104 mg/kg single oral bolus): 9
- Partial Response ([3]; 104 mg/kg single oral bolus): 0
- Stable Disease ([3]; 104 mg/kg single oral bolus): 0
- Toxic Deaths ([3]; 104 mg/kg single oral bolus): 0
- Complete Response [3, 9]: 0
- Partial Response [3, 9]: 1
- Stable Disease [3, 9]: 3
- Toxic Deaths [3, 9]: 0
- Complete Response [3, 10]: 8
- Partial Response [3, 10]: 1
- Stable Disease [3, 10]: 0
- Toxic Deaths [3, 10]: 1
- Complete Response [4]: 1
- Mean Score [4]: 3.2 ± 1.4
- Partial Response [4]: 0
- Stable Disease [4]: 0
- Toxic Deaths [4]: 0
- MDS (n) ([4]; days until tumor reached 1.5 g): 46.2 ± 6.1 (5) days
- Complete Response [5, 12]: 1
- Partial Responses [5, 12]: 4
- Toxic Deaths [5, 11]: 0
- Partial Response ([6]; 5 mice/group, Day 60): 4
- Stable Disease ([6]; 5 mice/group, Day 60): 0
- Mean Score ([6]; tumor score 1 to 10, group mean): 9.2 ± 0.2
